Columns and labels:
[1] = tested on: macrophages from cyclooxygenase-2 deficient mice; experiment: lipid body formation in macrophages from cyclooxygenase-2 deficient mice; format: cell-based, mouse; conditions: AA 3.7-15 μM or OA 2.5-10 μM
Method: (§1) Cyclooxygenase-1 and cyclooxygenase-2 knockout mice were generated as recently described (Morham et al., Cell 83:473-482 (1995); Langenbach et al., Cell 83:483-492 (1995)). All experiments were carried out with male 8-12 week old mice. Macrophages from cyclooxygenase genetically deficient mice and wild-type litter mates were obtained by lavaging the peritoneal cavity with 5 mL of cold RPMI containing heparin (20 IU/mL).

[2] = tested on: peritoneal macrophages from COX 1 knockout mice; experiment: lipid body formation in peritoneal macrophages from cyclooxygenase-1 knockout mice; format: cell-based, mouse; conditions: for induction of lipid body formation in macrophages: cyclooxygenase-1 deficient mice, AA 3.7-15 μM or OA 2.5-10 μM
Method: (§2) FIG. 4 is a graph illustrating the effects of arachidonic acid and oleic acid on lipid body formation in peritoneal macrophages from wild type (+/+) and cyclooxygenase-1 knockout (-/-) mice. The agonists AA and OA are represented by the square and circle symbols, respectively. The closed symbols represent the wild type mice; the open symbols represent the cyclooxygenase-1 knockout mice. Macrophages (10^6 /mL) were incubated with the agonists AA and OA at varying concentrations for an hour. Lipid bodies were enumerated using light microscopy following osmium staining. Each point represents the mean±SEM from fifty consecutively scanned macrophages.
as §1
(§3) ^1 Peritoneal macrophages from wild type and COX 1 knockout mice were
(§4) pretreated with the NSAID or vehicle for 1h and then stimulated with
(§5) arachidonic acid (AA, 15 μM) or vehicle for 1h. Results are mean ±
(§6) SEM from fifty consecutively counted macrophages. The statistically

[3] = tested on: wild-type mouse neutrophils; experiment: lipid body formation in wild-type mouse neutrophils; format: cell-based; conditions: AA 3.7-15 μM or OA 2.5-10 μM
[4] = tested on: human eosinophils; experiment: cis-unsaturated fatty acid-induced lipid body formation in human eosinophils; format: cell-based
Method: Vehicle alone is represented by the dark columns. AA and OA are represented by the striped and gray columns, respectively. Agonist plus the pretreatment with aspirin is represented by the cross-hatched columns. Cells (10^6 /mL) were pretreated with aspirin (10 μg/mL) or vehicle for one hour and then stimulated arachidonic acid (15 μM), oleic acid (10 μM) or vehicle for one hour. Lipid bodies were enumerated by light microscopy following osmium staining. Each point represents the mean±SEM from fifty consecutively counted cells. The statistically significant difference between the vehicle alone and the agonist is represented by a cross. Statistically significant differences due to pretreatment with aspirin are indicated by an asterisk.
Neutrophils were purified from fresh human blood obtained by venipuncture from healthy adult volunteers and collected into acidified citrate. After addition of 6% dextran 70 (McGaw, Irvine, Calif.), RBCs were allowed to sediment for 1 hour at room temperature. The leukocyte-rich supernatant was overlaid onto an equal volume of Ficoll-Paque gradient (Piscataway, N.J.), and centrifuged at 400×g for 20 min. PMNs (>95% pure, rest being eosinophils) were recovered from the pellet and washed in Ca^++ /Mg^++ free HBSS. Residual RBCs were lysed with hypotonic saline. Eosinophils (80% pure, the rest being neutrophils) were obtained from a donor with idiopathic hypereosinophilic syndrome using the same procedure as described above.
Human leukocytes (10^6 cells/mL) were incubated with varying concentrations of arachidonic acid (AA), oleic acid (OA) or vehicle at 37° C. in a 5% CO2 /95% O2 atmosphere, and after 1 hour leukocytes (10^5 cells per slide) were cytocentrifuged (550 rpm, 5 min) onto glass slides. During inhibitory studies, neutrophils were pretreated for 1 hour with varying concentrations of enzyme inhibitors, protein synthesis inhibitors, or vehicle as indicated. When PKC inhibitors were used, the pre-incubation time was reduced to 30 minutes to avoid toxic effects to the cells. The cell viability, determined by trypan blue dye exclusion at the end of each experiment, was always greater than 90%. Stock solutions for A23187, D609, U-73122, and indomethacin were prepared in DMSO and stored at -20° C. Aliquots were diluted in Ca^++ /Mg^++ fee HBSS to the indicated concentration immediately prior to use. […]
Results were expressed as mean±SEM and were analyzed statistically by means of the analysis of variance followed by the Newman-Keuls-Student test with the level of significance set at p<0.05. Correlation coefficients were determined by linear regression, and correlation analysis was performed by Fisher's r to z transformation with the level of significance set at p<0.05.

[5] = tested on: peritoneal macrophages from wild type mice; experiment: lipid body formation in peritoneal macrophages from wild type mice; format: cell-based, mouse; conditions: for induction of lipid bodies in macrophages: wild-type mouse, AA 3.7-15 μM or OA 2.5-10 μM
Method: as §2, §1, §3, §4, §5, §6

[6] = tested on: neutrophils (arachidonic acid uptake); experiment: 14C-arachidonic acid uptake in arachidonic acid-stimulated neutrophils; format: cell-based, human
Method: Neutrophils (10^6 /mL) were labeled with ^14 C-arachidonic acid (0.01 μCi/sample) together with either vehicle, aspirin (10 μg/mL), indomethacin (1 μg/mL) or sodium salicylate (10 μg/mL) for 1 hour. After the incubation period, lipid body formation was elicited by arachidonic acid (15 μM). The cells were washed 3 times in Ca^++ /Mg^++ free HBSS and analysis of incorporated ^14 C-arachidonic acid in the cell pellet was performed by liquid scintillation counting.
^1 The cells were pretreated with ^14 Carachidonic acid (0.01
μCi/sample) plus vehicle, aspirin (10 μg/ml) , sodium salicylate (1
μg/ml) or indomethacin (1 μg/ml) 1 h before the incubation with
arachidonic acid (15 μM). Cells were washed 3 times before the analysi
of incorporated ^14 Carachidonic acid. Results are representative of
independent experiments.

[7] = tested on: human eosinophils (PGE2 production); experiment: PGE2 production by human eosinophils (priming, A23187 stimulation, ELISA); format: cell-based; conditions: 10 μg/mL pretreatment
Method: FIG. 2B is a graph illustrating the effect of arachidonic acid (AA) and oleic acid (OA) on induction of lipid body formation (black) and priming effects (white) for enhanced prostaglandin E2 (PGE2) by human eosinophils. Eosinophils (10^6 /mL) were stimulated for one hour with arachidonic acid (3.7, 7.5, 15 μM) or oleic acid (2.5, 5, 10 μM). Lipid bodies were enumerated using light microscopy following osmium staining. The concentration of PGE2 in the supernatant was measured by ELISA after incubation with A23187 (0.5 μM) for 15 minutes at 37° C. Data are expressed as mean from 2 independent assays performed in duplicate.
After the incubation time, a sample was taken for lipid body enumeration and the cells were washed in Ca^++ /Mg^++ free HBSS. Leukocytes were resuspended in 1 mL of HBSS containing Ca^++ /Mg^++ and then stimulated with A23187 (0.5 μM) for 15 min. The reaction was stopped on ice, and the samples were centrifuged at 1500 rpm for 10 min at 4° C. The concentrations of PGE2, LTB4, and LTC4 in the supernatants were assayed by ELISA according to the manufacturer's instructions (Cayman, Ann Arbor, Mich.).

[8] = tested on: colorectal cancer; conditions: humans taking drug regularly vs persons not taking; cited from earlier work

CCCCC/C=C\C/C=C\C/C=C\C/C=C\CCCC(=O)O [arachidonic acid]
induction of lipid body formation in macrophages [1]: induced lipid body formation
lipid bodies (mean ± SEM)/macrophage ([2]; COX 1 knockout, AA 15 μM alone, 1 h, no NSAID): 7.0 ± 0.5 lipid bodies/macrophage
induction of lipid body formation in macrophages [2]: induced lipid body formation
induction of lipid bodies in neutrophils [3]: can also be stimulated in vitro to produce lipid bodies
increase in number of lipid bodies [4]: dose-dependent increase in the number of lipid bodies
lipid bodies (mean ± SEM)/macrophage ([5]; wild type, AA 15 μM alone, 1 h, no NSAID): 6.8 ± 0.3 lipid bodies/macrophage
induction of lipid bodies in macrophages [5]: can also be stimulated in vitro to produce lipid bodies

CC(=O)Oc1ccccc1C(=O)O [aspirin]
inhibition of 14C-arachidonic acid uptake ([6]; arachidonic acid-stimulated cells, aspirin 10 μg/mL, sodium salicylate 10 μg/mL, indomethacin 1 μg/mL): failed to inhibit
14C-AA uptake ([6]; stimulus arachidonate 15 μM, drug 10 μg/ml): 6974 cpm
inhibition of arachidonic acid-induced lipid body formation ([4]; 10 μg/mL): significantly inhibited
inhibition of oleic acid-induced lipid body formation ([4]; 10 μg/mL): significantly inhibited
inhibition of PGE2 production [7]: inhibited PGE2 production
lower risk of developing colorectal cancer [8]: 40-50%

CCCCCCCC/C=C\CCCCCCCC(=O)O [oleic acid]
induction of lipid body formation in macrophages [1]: induced lipid body formation
induction of lipid body formation in macrophages [2]: induced lipid body formation
induction of lipid bodies in neutrophils [3]: can also be stimulated in vitro to produce lipid bodies
increase in number of lipid bodies [4]: dose-dependent increase in the number of lipid bodies
induction of lipid bodies in macrophages [5]: can also be stimulated in vitro to produce lipid bodies

— patent publication US5837548A, “Treatment of inflammation by inhibition of lipid body formation” (Beth Israel Hospital, priority 1995, dated 1998)
